Experimental data taken from ChEMBL document CHEMBL1149555, “Synthesis and antiproliferative activity of thiazolidine analogs for melanoma” (Bioorg Med Chem Lett, 2007).

What was measured:
[1] = Antiproliferative activity against human SK-MEL-188 cells after 48 hrs by SRB assay; format: functional, cell-based; details: SK-MEL-188, 48 h
[2] = Antiproliferative activity against human fibroblasts after 48 hrs by SRB assay; format: cell-based; details: Fibroblast
[3] = Antiproliferative activity against human WM164 cells after 48 hrs by SRB assay; format: functional, cell-based; details: WM164, 48 h

What does the source list for `CCCCCCCCNC(=O)[C@@H]1CSC(c2cc(OC)c(OC)c(OC)c2)N1` (stereo partly specified)?
IC50 [1]: 17100 nM; IC50 [2]: 20800 nM; IC50 [3]: 19600 nM

Which IC50 [1] does the source give for `CCCCCCCCCCNC(=O)[C@@H]1CSC(c2ccc3c(c2)OCO3)N1` (stereo partly specified) here?
The IC50 was 6600 nM.

And the IC50 [2]?
Its IC50 is 8200 nM.

And the IC50 [3]?
The IC50 was 4500 nM.

Which results are given for `CCCCCCCCCCCCNC(=O)[C@@H]1CSC(c2ccc3c(c2)OCO3)N1` (stereo partly specified)?
IC50 [1]: 3500 nM; IC50 [2]: 5200 nM; IC50 [3]: 2500 nM

With `CCCCCCCCCCCCCCCCNC(=O)[C@@H]1CSC(c2ccc(NC(C)=O)cc2)N1` (stereo partly specified) as the compound, how does the IC50 [1] read?
Its IC50 is 2100 nM.

What about the IC50 [2] of the same compound?
The IC50 was 19100 nM.

What about the IC50 [3] of the same compound?
Its IC50 is 600 nM.

With `CCCCCCCCCCCCNC(=O)[C@@H]1CSC(c2ccc(OC)c(OC)c2)N1` (stereo partly specified) as the compound, how does the IC50 [1] read?
Its IC50 is 2900 nM.

What about the IC50 [2] of the same compound?
Its IC50 is 4500 nM.

And the IC50 [3]?
The IC50 was 1600 nM.

Which results are given for `CCCCCCCCCCCCCCNC(=O)[C@@H]1CSC(c2ccc(OC)c(OC)c2)=N1`?
IC50 [1]: 19100 nM; IC50 [2]: > 50000 nM; IC50 [3]: 42900 nM

Which IC50 [1] does the source give for `CCCCCCCCCCCCCCCCNC(=O)[C@@H]1CSC(c2ccc(OC)c(OC)c2)N1` (stereo partly specified) here?
The IC50 was 1500 nM.

And the IC50 [2]?
Its IC50 is 2100 nM.

And the IC50 [3]?
The IC50 was 500 nM.

With `COc1cc(C2SCC3C(=O)N4C(CSC4c4cc(OC)c(OC)c(OC)c4)C(=O)N32)cc(OC)c1OC` (stereo unspecified) as the compound, how does the IC50 [1] read?
The IC50 was over 50000 nM.

What about the IC50 [2] of the same compound?
The IC50 was over 50000 nM.

And the IC50 [3]?
The IC50 was over 50000 nM.

For `CCCCCCCCCCCCCCCCNC(=O)[C@@H]1CSC(c2ccc3c(c2)OCO3)N1` (stereo partly specified), which IC50 [1] is on record?
The IC50 was 1600 nM.

And the IC50 [2]?
Its IC50 is 5700 nM.

And the IC50 [3]?
The IC50 was 1800 nM.

Which IC50 [1] does the source give for `CCCCCCCCCCCCCCNC(=O)[C@@H]1CSC(c2ccc(OC)c(OC)c2)N1` (stereo partly specified) here?
The IC50 was 1500 nM.

What about the IC50 [2] of the same compound?
The IC50 was 2800 nM.

What about the IC50 [3] of the same compound?
The IC50 was 800 nM.

With `CCCCCCCCCCCCCCCCCNC(=O)[C@@H]1CSC(c2ccc(NC(C)=O)cc2)N1` (stereo partly specified) as the compound, how does the IC50 [1] read?
Its IC50 is 8500 nM.

And the IC50 [2]?
Its IC50 is 35800 nM.

What about the IC50 [3] of the same compound?
Its IC50 is 2400 nM.

Which IC50 [1] does the source give for `CCCCCCCCCCCCCCNC(=O)[C@H]1CSC(c2cc(OC)c(OC)c(OC)c2)N1` (stereo partly specified) here?
The IC50 was 2600 nM.

And the IC50 [2]?
The IC50 was 4100 nM.

What about the IC50 [3] of the same compound?
The IC50 was 1100 nM.

With `CCCCCCCCCCCCCCCCNC(=O)[C@@H]1CSC(c2cc(OC)c(OC)c(OC)c2)N1` (stereo partly specified) as the compound, how does the IC50 [1] read?
Its IC50 is 1800 nM.

And the IC50 [2]?
Its IC50 is 2400 nM.

What about the IC50 [3] of the same compound?
Its IC50 is 700 nM.

With `CCCCCCCCCCCCCCCNC(=O)[C@@H]1CSC(c2ccc(NC(C)=O)cc2)N1` (stereo partly specified) as the compound, how does the IC50 [1] read?
The IC50 was 1600 nM.

And the IC50 [2]?
The IC50 was 14300 nM.

And the IC50 [3]?
The IC50 was 1000 nM.

Which IC50 [1] does the source give for `CCCCCCCCC/C=C\CCCCCCCNC(=O)[C@@H]1CSC(c2ccc(NC(C)=O)cc2)N1` (stereo partly specified) here?
Its IC50 is 1400 nM.

What about the IC50 [2] of the same compound?
The IC50 was 10600 nM.

What about the IC50 [3] of the same compound?
The IC50 was 1000 nM.

With `CNC(=O)c1cc(Oc2ccc(NC(=O)Nc3ccc(Cl)c(C(F)(F)F)c3)cc2)ccn1` [SORAFENIB] as the compound, how does the IC50 [1] read?
The IC50 was 5400 nM.

What about the IC50 [2] of the same compound?
The IC50 was 15100 nM.

And the IC50 [3]?
Its IC50 is 4900 nM.

With `CN(C)/N=N/c1[nH]cnc1C(N)=O` [DACARBAZINE] as the compound, how does the IC50 [1] read?
The IC50 was over 100000 nM.

And the IC50 [3]?
The IC50 was over 100000 nM.

For `CCCCCCCCCCNC(=O)[C@@H]1CSC(c2ccc(OC)c(OC)c2)N1` (stereo partly specified), which IC50 [1] is on record?
Its IC50 is 11900 nM.

What about the IC50 [2] of the same compound?
The IC50 was 6300 nM.

And the IC50 [3]?
Its IC50 is 6100 nM.

Which IC50 [1] does the source give for `CCCCCCCCCCCCCCNC(=O)[C@@H]1CSC(c2ccc3c(c2)OCO3)N1` (stereo partly specified) here?
Its IC50 is 1600 nM.

And the IC50 [2]?
The IC50 was 4200 nM.

What about the IC50 [3] of the same compound?
Its IC50 is 1000 nM.

Which IC50 [1] does the source give for `CCCCCCCCCCCCNC(=O)[C@@H]1CSC(c2ccc(N)cc2)N1` (stereo partly specified) here?
The IC50 was 2200 nM.

What about the IC50 [2] of the same compound?
Its IC50 is 4100 nM.

And the IC50 [3]?
Its IC50 is 1400 nM.

Which IC50 [1] does the source give for `CCCCCCCCCCCCCCCCNC(=O)[C@@H]1CSC(c2ccccc2)N1` (stereo partly specified) here?
The IC50 was 1900 nM.

What about the IC50 [2] of the same compound?
The IC50 was 2200 nM.

And the IC50 [3]?
The IC50 was 700 nM.

What does the source list for `CON(C)C(=O)[C@@H]1CSC(c2ccccc2)N1` (stereo partly specified)?
IC50 [1]: > 100000 nM; IC50 [2]: > 100000 nM; IC50 [3]: > 100000 nM

With `CCCCCCCCCCCCNC(=O)[C@@H]1CSC(c2ccc(NC(C)=O)cc2)N1` (stereo partly specified) as the compound, how does the IC50 [1] read?
The IC50 was 2400 nM.

And the IC50 [2]?
Its IC50 is 3500 nM.

What about the IC50 [3] of the same compound?
Its IC50 is 1200 nM.

For `CCCCCCCCCCCCCCNC(=O)[C@@H]1CSC(c2cc(OC)c(OC)c(OC)c2)N1` (stereo partly specified), which IC50 [1] is on record?
The IC50 was 2000 nM.

What about the IC50 [2] of the same compound?
The IC50 was 2600 nM.

What about the IC50 [3] of the same compound?
The IC50 was 1600 nM.

With `CCCCCCCCCCCCCCNC(=O)[C@@H]1CSC(c2ccccc2)=N1` as the compound, how does the IC50 [1] read?
The IC50 was 42100 nM.

And the IC50 [2]?
Its IC50 is over 50000 nM.

What about the IC50 [3] of the same compound?
Its IC50 is over 50000 nM.

Which results are given for `CCCCCCCCCCCCCCNC(=O)[C@@H]1CSC(c2ccc(NC(C)=O)cc2)N1` (stereo partly specified)?
IC50 [1]: 2300 nM; IC50 [2]: 3600 nM; IC50 [3]: 600 nM

With `CCCCCCCCCCNC(=O)[C@@H]1CSC(c2cc(OC)c(OC)c(OC)c2)N1` (stereo partly specified) as the compound, how does the IC50 [1] read?
Its IC50 is 14500 nM.

What about the IC50 [2] of the same compound?
The IC50 was 6700 nM.

What about the IC50 [3] of the same compound?
The IC50 was 2100 nM.

With `CCCCCCCCC/C=C/CCCCCCCNC(=O)[C@@H]1CSC(c2ccc(NC(C)=O)cc2)N1` (stereo partly specified) as the compound, how does the IC50 [1] read?
The IC50 was 3300 nM.

And the IC50 [2]?
Its IC50 is 18000 nM.

What about the IC50 [3] of the same compound?
The IC50 was 1400 nM.

Which results are given for `CCCCCCCCCCCCCCCCNC(=O)[C@@H]1CSC(c2ccc(N)cc2)N1` (stereo partly specified)?
IC50 [1]: 2300 nM; IC50 [2]: 7400 nM; IC50 [3]: 1400 nM

For `CCCCCCCCCCCCCCCCNC(=O)[C@@H]1CSC(c2ccc(NC(C)=O)cc2)N1C` (stereo partly specified), which IC50 [1] is on record?
Its IC50 is 29100 nM.

What about the IC50 [2] of the same compound?
Its IC50 is over 100000 nM.

And the IC50 [3]?
The IC50 was over 100000 nM.

What does the source list for `CCCCCCCCCCCCCCCCNC(=O)[C@H]1CSC(c2ccc(NC(C)=O)cc2)N1` (stereo partly specified)?
IC50 [1]: 3200 nM; IC50 [2]: 22600 nM; IC50 [3]: 1400 nM

Which IC50 [1] does the source give for `CCCCCCCCCCCCNC(=O)[C@@H]1CSC(c2cc(OC)c(OC)c(OC)c2)N1` (stereo partly specified) here?
Its IC50 is 2100 nM.

And the IC50 [2]?
Its IC50 is 2400 nM.

What about the IC50 [3] of the same compound?
The IC50 was 2400 nM.

Which IC50 [1] does the source give for `CCCCCCCCCCCCCCNC(=O)[C@@H]1CSC(c2ccccc2)N1` (stereo partly specified) here?
The IC50 was 1900 nM.

And the IC50 [2]?
Its IC50 is 2800 nM.

And the IC50 [3]?
The IC50 was 600 nM.

Which results are given for `CCCCCCCCCCCCCCCCCCNC(=O)[C@@H]1CSC(c2ccc(NC(C)=O)cc2)N1` (stereo partly specified)?
IC50 [1]: 22300 nM; IC50 [2]: > 60000 nM; IC50 [3]: 11600 nM
